Test results published in patent US11806393B2, “Flavivirus peptide sequences, epitopes, and methods and uses thereof” (priority 2017, dated 2023).

What was measured:
Assay type in all cases: cell-based, mouse
CD8+ T cells = experiment: IFNγ ELISPOT, ZIKV-infected Ifnar-/- HLA-A*0101 transgenic mice; details: HLA-A*0101 mice; for SFC/10^6 CD8+ T cells, FSS13025: 7 days after ZIKV FSS13025; for SFC/10^6 CD8+ T cells, MR766: 7 days after ZIKV MR766
Procedure: Two ZIKV strains, MR766 (Uganda, 1947) and FSS13025 (Cambodia, 2010), were obtained from the World Reference Center for Emerging Viruses and Arboviruses (WRCEVA). The mouse-adapted DENV2 strain S221 is a triple-plaque purified clone derived from DENV2 D2S1038. Both ZIKV and DENV2 were amplified in C6/36 mosquito cells, and viral titers were measured using baby hamster kidney (BHK)-21 cell-based focus forming assay (FFA). For epitope screening, 5-week old mice (female or male) were infected retro-orbitally (R.O.) with either 1×102 FFU of ZIKV FSS13025 or ZIKV MR766, or 2×10^4 FFU of DENV2 S221 in 200 μl 10% FBS/PBS. Seven days after infection, CD8^+ T cells were isolated from splenocytes and used for ELISPOT assay, while the splenocytes were directly used for ICS assay. Additionally, 5-week old mice were inoculated I.P. with 2×10^3 FFU of DENV2 S221 for 4 weeks.
CD8^+ T cells were isolated from splenocytes using magnetic bead positive selection (Miltenyi Biotec, Germany) 7 days after virus infection. 2×10^5 CD8^+ T cells were stimulated with 1×10^5 LPS-blasts loaded with 10 μg of individual peptide in 96-well flat-bottom plates (IMMOBILON™-P; Millipore, Bedford, Mass.) that were coated with anti-IFNγ mAb (clone AN18; Mabtech, Stockholm, Sweden) in triplicate. Concanavalin A (ConA) was used as positive control. After 20 hours of incubation, biotinylated anti-mouse IFNγ mAb (R4-6A2; Mabtech), followed by ABC peroxidase (Vector Laboratories, Burlingame, Calif., USA) and then 3-amino-9-ethylcarbazole (Sigma-Aldrich, St. Louis, Mo., USA) were added into the wells. […] A peptide inducing a magnitude of >500 SFCs/10^6 CD8^+ T cells was considered as an immunodominant peptide.
The following results are with respect to FIG. 9, where IFNγ ELISPOT was performed using CD8+ T cells isolated from Ifnar^−/− HLA-B*0702 transgenic mice (a and b) and Ifnar^−/− HLA-A*0101 transgenic mice (d and e) 7 days after retro-orbital (R.O.) infection with 1×10^2 FFU of ZIKV strain FSS13025 or MR766. Two independent experiments performed in triplicate were averaged and the error bars represent the SEM. The data are expressed as the mean number of spot forming cells (SFC) per 10^6 CD8^+ T cells. The criteria for positivity were net SFC per 10^6 cells of >20, and a stimulation index of >2.0 when compared with the negative control. Dotted lines represent the cutoff value. * Indicates a positive response. All positive peptides were grouped according the corresponding ZIKV protein (c and f); white and black bars are the total IFNγ response of all identified positive peptides from an indicated protein; numbers in parentheses are the number of positive peptides in this protein. ConA denotes Concanavalin A.

CD44+ CD4+ T cells [1] = experiment: ICS, naive or DENV2-immune Ifnar1-/- HLA-DRB1*0101 mice challenged with ZIKV; details: day 7 after ZIKV challenge; for CD4+ T cell response to peptide: DENV2-immune mice; for expansion of peptide-reactive CD4+ T cells: naive mice
Excerpt: Ifnar1−/−HLA-DRB1*0101 mice were primed intraperitoneally with 2×103 FFU of DENV2 S221 for 4 weeks. Naïve mice and DENV2-immune mice were challenged retro-orbitally with 1×10^4 FFU of ZIKV strain SD001 for 3 or 7 days. Splenocytes were stimulated in vitro with the indicated ZIKV-specific and DENV2/ZIKV-cross-reactive epitopes. The frequency of CD44+ CD4+ T cells producing IFNγ, IFNγ plus TNF, or IL-2 were detected using the ICS assay. (E) The combined data for positive peptide responses in (FIGS. 27A-27D). Numbers in parentheses indicate the number of positive peptides. Data represent the mean±s.e.m. of three or four independent experiments, with a total of 9 mice/group for A and C, 14/group for B, and 15/group for D. *P<0.05, **P<0.01, ***P<0.001, ****P<0.0001 by two-tailed Mann-Whitney test. Negative and positive refer to cells incubated alone or with PMA/ionomycin, respectively.
Five-week-old female or male mice were inoculated intraperitoneally (i.p.) with 2×10^3 FFU of DENV2 S221. […] Positive and negative controls were included in all experiments.
(§1) After incubation of splenocytes with peptides or PMA/ionomycin, cells were harvested, washed, and incubated with Fc Block (CD16/CD32 mAb 2.4G2, BD Biosciences), followed by staining with fixable Live/Dead blue viability stain (Life technologies) and the following antibodies: PerCP-Cy5.5-conjugated anti-CD3 mAb (clone 145-2C11, Tonbo), APC-eFluor780-conjugated anti-CD4 mAb (clone GK1.5, Invitrogen), Brilliant Violet (BV) 785-conjugated anti-CD44 mAb (clone IMT, Biolegend), PE-conjugated anti-CD11a (clone M17/4, Biolegend), BV605-conjugated anti-CD49d (clone 9C10(MFR4.B, Biolegend), PE-conjugated anti-CD25 mAb (clone PC61, Biolegend), PE-conjugated or biotin-conjugated anti-CD185 mAb (CXCR5, clone SPRC15; Invitrogen), BV 605-conjugated anti-[…] mAb (PD1, clone 29F.1A12; Biolegend), and/or BV 421-conjugated streptavidin (#405225, Biolegend). Cells were then fixed and permeabilized using Cytofix/Cytoperm solution (BD Biosciences), followed by staining with FITC-conjugated anti-IFNγ mAb (clone XMG1.2, Tonbo), Alexa Fluor 700- or APC-conjugated anti-TNF mAb (clone MP6-XT22, eBioscience), PE-, BV 421-, or BV 711-conjugated anti-IL-2 mAb (clone JES6-5H4, Biolegend), APC-conjugated anti-IL-4 mAb (clone 11B11, Biolegend), PE-conjugated anti-IL-5 mAb (clone TRFK5, eBioscience), BV510-conjugated anti-IL-17A mAb (clone 17B7, eBioscience), and/or Alexa Fluor 700-conjugated anti-FoxP3 mAb (clone FJK-16S, eBioscience). Data were collected using an LSR Fortessa flow cytometer (BD Biosciences) and analyzed using FlowJo software X 10.0.7 (Tree Star).

CD44+ CD4+ T cells [2] = experiment: ICS, ZIKV SD001-infected Ifnar1-/- HLA-DRB1*0101 mice; details: for % CD4+ CD44+ T cells (ZIKV) INFγ+ / % CD4+ CD44+ T cells (ZIKV) IL-2+ / % CD4+ CD44+ T cells (ZIKV) INFγ+ TNFα+: 7 days after ZIKV SD001, 6 h stimulation; for cytokines produced by ZIKV-primed CD4+ T cells on peptide stimulation: ZIKV SD001, day 7
Procedure: Ifnar1^−/− HLA-DRB1*0101 mice were infected retro-orbitally with 1×10^2 FFU of ZIKV strain SD001 for 7 days. Splenocytes were stimulated in vitro with the indicated ZIKV-derived HLA-DRB1*0101-binding peptides for 6 h, and the frequency of CD44^+ CD4^+ T cells producing IFNγ, TNF, or IFNγ plus TNF (A), IL-2 (B), and IL-17 (C) were detected using the ICS assay. Data represent the mean±s.e.m. of four independent experiments (n=3-5 mice/experiment; total 16 mice). *P<0.05, **P<0.01, ***P<0.001, ****P<0.0001 by two-tailed Mann-Whitney test. Negative and positive refer to cells incubated alone or with PMA/ionomycin, respectively. […]
(§2) For the 30-peptide epitope screen, 5-week-old female or male mice were infected retro-orbitally (r.o.) with either 1×10^2 focus-forming units (FFU) of ZIKV SD001 or 2×10^3 FFU of DENV2 S221 in 200 μl of 10% fetal bovine serum in phosphate-buffered saline (FBS/PBS). Seven days after infection, spleens were removed and single-cell splenocyte suspensions were prepared. A total of 1×10^6 splenocytes was plated in each well of a 96-well U-bottom plate and stimulated with individual peptides (20 μg crude peptide per well) for 6 h. One hour into the incubation, brefeldin A (GolgiPlug, BD Biosciences) was added to the cells. Positive and negative controls were splenocytes stimulated with phorbol-12-myristate-13-acetate (PMA, 0.1 μg/ml) and ionomycin (1 μg/ml) or incubated alone, respectively.
as §1

CD44+ CD4+ T cells [3] = experiment: ICS, DENV2 S221-infected Ifnar1-/- HLA-DRB1*0101 mice; details: for cross-reactive response by DENV2-primed CD4+ T cells / cytokines produced by DENV2-primed CD4+ T cells on peptide stimulation: DENV2 S221, day 7
Procedure: Ifnar1^−/− HLA-DRB1*0101 mice were infected intraperitoneally with 2×10^3 FFU of DENV2 strain […] for 7 days. Splenocytes were stimulated in vitro with the indicated ZIKV-derived HLA-DRB1*0101-binding peptides for 6 h. The frequency of CD44^+ CD4^+ T cells producing IFNγ, TNF, or IFNγ plus TNF (A) or IL-2 (B) were detected using the ICS assay. Data represent the mean±s.e.m. of three independent experiments (n=3-4 mice/experiment; total 10 mice). *P<0.05, **P<0.01, ***P<0.001, ****P<0.0001 by two-tailed Mann-Whitney test. Negative and positive refer to cells incubated alone or with PMA/ionomycin, respectively.
as §2, §1

[4] = 7 days after DENV2 S221, 6 h stimulation

Sequence	SFC/10^6 CD8+ T cells, FSS13025 (CD8+ T cells)	SFC/10^6 CD8+ T cells, MR766 (CD8+ T cells)	% CD4+ CD44+ T cells (ZIKV) INFγ+ (CD44+ CD4+ T cells [2])	cytokines produced by ZIKV-primed CD4+ T cells on peptide stimulation (CD44+ CD4+ T cells [2])	identification as Th1 epitope (IFNγ, TNF, IL-2 ICS) (CD44+ CD4+ T cells [2]; ZIKV-primed CD4+ T cells)	cytokines produced by DENV2-primed CD4+ T cells on peptide stimulation (CD44+ CD4+ T cells [3])	other results
YAQMWQLLY [FSS/MR-NS5509-517]	313 SFC/10^6 CD8+ T cells	225 SFC/10^6 CD8+ T cells	–	–	–	–	–
FLRFTAIKPSLGLIN [C53-67]	–	–	0.265%	produce only IFNγ	Th1 epitopes	–	CD4+ T cell response to peptide (CD44+ CD4+ T cells [1]): increased responses
FGGLKRLPAGLLLGH [C27-41]	–	–	0.191%	stimulated IFNγ, TNF, and IL-2 production	Th1 epitopes	–	CD4+ T cell response to peptide (CD44+ CD4+ T cells [1]): increased responses; expansion of peptide-reactive CD4+ T cells (CD44+ CD4+ T cells [1]): significant expansion; % CD4+ CD44+ T cells (ZIKV) IL-2+ (CD44+ CD4+ T cells [2]): 0.08%; % CD4+ CD44+ T cells (ZIKV) INFγ+ TNFα+ (CD44+ CD4+ T cells [2]): 0.1%
IKKFKKDLAAMLRII [C81-95]	–	–	0.19%	produce only IFNγ	Th1 epitopes	–	expansion of peptide-reactive CD4+ T cells (CD44+ CD4+ T cells [1]): significant expansion; identification as Th17 epitope (IL-17 ICS) (CD44+ CD4+ T cells [2]; ZIKV-primed CD4+ T cells): Th17 epitope
WAIYAALTTFITPAV [NS4B40-54]	–	–	–	stimulated IFNγ plus TNF production	Th1 epitopes	induced only TNF-producing cells	% CD4+ CD44+ T cells (DENV) TNFα+ (CD44+ CD4+ T cells [3]; [4]): 0.367%; cross-reactive response by DENV2-primed CD4+ T cells (CD44+ CD4+ T cells [3]): elicited cross-reactive responses; % CD4+ CD44+ T cells (ZIKV) INFγ+ TNFα+ (CD44+ CD4+ T cells [2]): 0.049%
YLAGASLIY [FSS/MR-NS4B231-239]	1646 SFC/10^6 CD8+ T cells	1574 SFC/10^6 CD8+ T cells	–	–	–	–	immunodominance in IFNγ ELISPOT (CD8+ T cells; immunodominant: >500 SFCs/10^6 CD8+ T cells, shared by both ZIKV strains): most immunodominant epitope
FSDLYYLTM [FSS/MR-E198-206]	398 SFC/10^6 CD8+ T cells	388 SFC/10^6 CD8+ T cells	–	–	–	–	–
LPFVMALGLTAVRLV [NS2A134-198]	–	–	–	did not elicit a response by ZIKV-primed cells	–	induce TNF production	% CD4+ CD44+ T cells (DENV) TNFα+ (CD44+ CD4+ T cells [3]; [4]): 0.397%
NLEYRIMLSVHGSQH [E134-148]	–	–	–	stimulated only IL-2 production	Th1 epitopes	induced only IL-2-producing cells	% CD4+ CD44+ T cells (DENV) IL-2+ (CD44+ CD4+ T cells [3]; [4]): 0.459%; cross-reactive response by DENV2-primed CD4+ T cells (CD44+ CD4+ T cells [3]): elicited cross-reactive responses; % CD4+ CD44+ T cells (ZIKV) IL-2+ (CD44+ CD4+ T cells [2]): 0.19%
